The results in this text go back to PMC10980815, “Cell surface patching via CXCR4-targeted nanothreads for cancer metastasis inhibition” (Nature Communications, 2024).

The test system of assay [1] is 4T1 cells. As to the kind of experiment: Label-free proteomics analysis. The format is cell-based, murine. To be noted: Fig. 4f proteomics heatmap value. On the procedure: For proteomics analysis, 4T1 cells (5 × 10^5 cells) were seeded in 12-well plates (NEST Biotechnology). […] Cell samples were submitted for label-free proteomics analysis (Shanghai Omics-space Biotech Co., Ltd., Shanghai, China). The analysis included protein extraction, protein digestion, LC − MS/MS detection (Thermo Scientific Orbitrap-Fusion Lumos), protein quantitation and identification (MaxQuant 1.5.5.1), and bioinformatics analysis.

Assay [2] concerns 4T1 cells. As to the kind of experiment: Wound healing assay. Format: cell-based, murine. To be noted: stimulated 4T1 cells; individual replicates, n = 3. On the procedure:
Wound healing assay and transwell migration and invasion assay were conducted to investigate in vitro metastasis inhibition. For the wound healing assay, 4T1 cells (5 × 10^5 cells) were cultured in 12-well plates (NEST Biotechnology) as monolayer with more than 90% coverage. Sterile 200 μL pipette tips were used to scrape off the cells, generating a linear cell-free area in the middle of the well. Subsequently, cells were washed by PBS to remove debris. In the stimulated group, 4T1 cells were stimulated with CXCL12 (100 ng/mL) for 1 h. […] In the P-BS-CM1 → P-CM2 group, 4T1 cells underwent consecutive treatment with P-BS-CM1 for 1 h and P-CM2 for 1 h before CXCL12 stimulation (1 mg/mL BS equivalence, CM1:CM2, 1:1 mol%). Images of the wound were recorded by a microscope at 0 h and 24 h after CXCL12 stimulation, and the wound healing rate was calculated using Image J software. For the transwell migration and invasion assay, 4T1 cells (5 × 10^5 cells) were seeded in the non-coated upper chamber (Millipore, 8 μm) or GelNest™ matrigel (NEST Biotechnology) pre-coated upper chamber. The cells underwent the same treatment conditions as wound healing assay. After 24 h of treatment, migrated or invaded cells across the membrane were stained with 0.1% crystal violet, imaged by microscope, and quantified by absorbance at 570 nm after dissolution.

Assay [3] deals with orthotopic 4T1 breast tumors. The assay is described as follows: Hydroxyproline assay in tumor tissues. Format: in vivo, female BALB/c mice. The arrangement: unit not given here. The protocol:
4T1 cells (1 × 10^6 cells) were injected into the third mammary fat pad of female BALB/c mice (6–8-week). […] On day 28, blood samples, lungs and tumors were harvested.
To assess fibrosis in tumor tissues, Masson staining, Sirius staining, immunofluorescent staining of α-SMA and fibronectin, and a quantitative hydroxyproline assay were employed. For immunofluorescent staining of α-SMA and fibronectin, tumor slices were stained with anti-alpha smooth muscle actin recombinant rabbit monoclonal antibody (1:500 dilution) and anti-fibronectin mouse monoclonal antibody (1:500 dilution) at 4 °C overnight, followed by staining with goat anti-mouse IgG H&L Alexa Fluor® 488 (1:1000 dilution) and goat anti-rabbit IgG H&L Alexa Fluor® 647 (1:1000 dilution).

The mark [4] stands for this setting: i.v. days 7, 14, 21 (5 mg/kg BS equivalence; P-CM2 24 h later), analysis day 28, mouse 1 of 5.

Values joined by “and” are separate entries in the source; they are usually repeats but may differ in a detail not shown here. Identical values can stand only once. Ends that are not written are not given here.

On to LGASWHRPDKCCLGYQKRPLPA [Free BS], for which the “PKA C-alpha” value in the assay on 4T1 cells [1] (replicate 1) is recorded as -0.6179; in the assay with 4T1 cells [1] (replicate 2) it was 0.3837; with 4T1 cells [1] (replicate 3) it was -0.4642. The VDAC3 is 0.5272 in the assay with 4T1 cells [1] (replicate 1), -0.8599 in the assay with 4T1 cells [1] (replicate 2) and 0.1524 with 4T1 cells [1] (replicate 3). Besides, in the assay with 4T1 cells [2], the “Wound healing rate (%)” value was 89.21% and 80.06% and 77.11%. The “hydroxyproline in tumor tissues (Fig. 6b)” value in assay [3] (setting [4]) is 0.5754; in assay [3] (same, mouse 2 of 5), 0.4638; in assay [3] (same, mouse 3 of 5), 0.4618; in assay [3] (same, mouse 4 of 5) it was 0.441; in assay [3] (same, mouse 5 of 5) it was 0.4238.
Regarding “P-BS: HPMA copolymer-BS conjugate, ~6 BS grafts per polymer (LGASWHRPDKCCLGYQKRPLPA; not fully specified (residues 11, 12); also: about 6 peptides grafted on HPMA copolymer via cysteine-maleimide thioether links)”, the “PKA C-alpha” value in the assay with 4T1 cells [1] (replicate 1) was -1.375; in the assay with 4T1 cells [1] (replicate 2), 0.3768; in the assay on 4T1 cells [1] (replicate 3), 0.8503. For the same substance, the results for the VDAC3 with 4T1 cells [1] (replicate 1), in the assay with 4T1 cells [1] (replicate 2) and in the assay on 4T1 cells [1] (replicate 3) were -0.0121, 1.023 and 1.779, respectively. For the same substance, the “Wound healing rate (%)” value in the assay with 4T1 cells [2] was 50.0872% and 55.1712% and 60.2636%. Moreover, the “hydroxyproline in tumor tissues (Fig. 6b)” value in assay [3] (setting [4]) amounted to 0.4104; in assay [3] (same, mouse 2 of 5), 0.397; in assay [3] (same, mouse 3 of 5) it was 0.3878; in assay [3] (same, mouse 4 of 5), 0.3734; in assay [3] (same, mouse 5 of 5) it was 0.3825.
